The values that follow come from US20250197864A1, “LNCRNA TRANSCRIPTS IN MELANOMAGENESIS” (The Regents of the University of California, priority 2021, published 2025).

Data set [1] relates to hepatocellular carcinoma cell line HepG2. As to the kind of experiment: Cell viability assay (ATP quantitation). Type of data set: cell-based. The following applies: 50 nM, 120 hrs, Lipofectamine3000 2 ul/ml, vs non-targeting control ASO.
Data set [2] deals with sarcoma cell line SK-LMS-1. As to the kind of experiment: Cell viability assay (ATP quantitation). The following applies: SK-LMS-1 sarcoma; 50 nM, 120 hrs; Lipofectamine3000 2 ul/ml; vs non-targeting control ASO. The class given is cell-based.
The next data set has as its system Caspase 3+7. As to the kind of experiment: Caspase Glo 3/7 assay in D04 cell line. The class given is cell-based, human. The following applies: ASO 50 nM, 1 day, vs control ASOs. The procedure:
Dependent on cell doubling time, 2-3×10^^3 cells were seeded in 96 well plates. 1 day after seeding cells were incubated in media with 50 nM oligonucleotide concentration and transfection reagent. 1 day after transfection Total luminescence was measured on the SynergyHT plate reader (BioTek) using Gen5 software. Experiments were performed in quadruplicates.

In data set [3] the test system is kinases in D04, D04RM and MM415 melanoma cell extracts. As to the kind of experiment: High Throughput Kinase Activity Mapping (HT-KAM). Type of data set: cell-based, human. Conditions: ASO 50 nM, one day, vs Control-ASO. The procedure:
We mapped and compared the phospho-catalytic profile of kinases of D04, MM415 and D04RM cells that were incubated with TRASH targeting ASOs (SEQ TD NO: 15), ASOs targeting the oncogenic lncRNA Malat1 and non-targeting control ASOs. Therefore, ye used the high-throughput system HTKAM to measure the enzymatic activity of kinases using biological peptide targets as phospho-sensors to reveal kinase dependencies in cell lines.
Kinases cover a wide range of apoptosis regulating functions in cancer. Given the findings that TRASH-ASO treatment (SEQ ID NO:15) strongly affects the transcriptional regulation of genes that are related to kinase signaling pathways, we aimed to perform functional profiling of kinase activity shifts triggered by TRASH-inhibition. To do so, we used a kinase activity screening platform39 (named High Throughput Kinase Activity Mapping—HT-KAM) that enables the simultaneous identification of kinase enzymes functional state in cancer cells across a broad range of kinase families (see Methods for details). We generated protein extracts of two versions of the D04 (D04—treatment naive; D04RM—trametinib resistant) and the MM415 melanoma cell-lines, treated with Control-ASOs or TRASH-ASOs. […]

Consider “GACTGGAGATAATTAA (gapmer, pattern not given here) [SEQ ID NO: 15, GapmeR ASO targeting AC004540.4 (TRASH), exon region of both isoforms; used for in vitro experiments]”, for which the cell viability decrease result in data set [1] and in data set [2] was “significant cell viability decrease” in each case. Besides, the “Caspase-3 &-7 activity increase” value with Caspase 3+7 was found to be 3.0 fold. Further, the “activity of anti-apoptotic kinases (AKT1, CDK1, LYN, YES1, CHEK1, PKCA, STK11, PKCa, PIM1) by HT-KAM” value in data set [3] (listed as SEQ TD NO: 15) was “significantly decreased activity levels”; in data set [3] (listed as TRASH-ASO), “significantly less active”.
